Experimental data: PubChem BioAssay (NCI)
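In this assay, cells in 96-well plates receive the compound at five concentrations for 48 hours. Endpoints are linearly interpolated between the surrounding concentrations. TGI marks complete inhibition of growth.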

Legend:
Experiment in all cases: NCI anticancer screen, dose series, 48 h
SK-OV-3 ovarian = system: SK-OV-3 ovarian
SK-MEL-28 melanoma = system: SK-MEL-28 melanoma
OVCAR-4 ovarian = system: OVCAR-4 ovarian
HOP-92 NSCLC = system: HOP-92 NSCLC
KM12 colon = system: KM12 colon
NCI-H460 lung = system: NCI-H460 lung
UO-31 renal = system: UO-31 renal
KM20L2 colon = system: KM20L2 colon
UACC-62 melanoma = system: UACC-62 melanoma
EKVX NSCLC = system: EKVX NSCLC
NCI-H23 lung = system: NCI-H23 lung
ACHN renal = system: ACHN renal
SK-MEL-5 melanoma = system: SK-MEL-5 melanoma
OVCAR-5 ovarian = system: OVCAR-5 ovarian
OVCAR-3 ovarian = system: OVCAR-3 ovarian
M14 melanoma = system: M14 melanoma
RXF 393 renal = system: RXF 393 renal
SNB-19 CNS = system: SNB-19 CNS
CCRF-CEM leukemia = system: CCRF-CEM leukemia
K-562 leukemia = system: K-562 leukemia
OVCAR-8 ovarian = system: OVCAR-8 ovarian
A549 NSCLC = system: A549 NSCLC
786-0 renal = system: 786-0 renal
HOP-62 NSCLC = system: HOP-62 NSCLC
DLD-1 colon = system: DLD-1 colon
IGROV1 ovarian = system: IGROV1 ovarian
SR leukemia = system: SR leukemia
SF-295 CNS = system: SF-295 CNS
LXFL 529 NSCLC = system: LXFL 529 NSCLC
HCT-15 colon = system: HCT-15 colon
SF-539 CNS = system: SF-539 CNS
TK-10 renal = system: TK-10 renal
SW-620 colon = system: SW-620 colon
U251 CNS = system: U251 CNS
SNB-75 CNS = system: SNB-75 CNS
SK-MEL-2 melanoma = system: SK-MEL-2 melanoma
A498 renal = system: A498 renal
MALME-3M melanoma = system: MALME-3M melanoma
MOLT-4 leukemia = system: MOLT-4 leukemia
HT29 colon = system: HT29 colon
HCT-116 colon = system: HCT-116 colon
SF-268 CNS = system: SF-268 CNS
SN12C renal = system: SN12C renal
CAKI-1 renal = system: CAKI-1 renal
M19-MEL melanoma = system: M19-MEL melanoma
NCI-H522 lung = system: NCI-H522 lung
RXF-631 renal = system: RXF-631 renal
HCC-2998 colon = system: HCC-2998 colon
XF 498 CNS = system: XF 498 CNS
SNB-78 CNS = system: SNB-78 CNS
DMS 114 small cell lung = system: DMS 114 small cell lung
HL-60(TB) leukemia = system: HL-60(TB) leukemia
UACC-257 melanoma = system: UACC-257 melanoma
DMS 273 small cell lung = system: DMS 273 small cell lung
RPMI-8226 leukemia = system: RPMI-8226 leukemia
NCI-H226 lung = system: NCI-H226 lung
MDA-MB-231 breast = system: MDA-MB-231 breast
DU-145 prostate = system: DU-145 prostate
T-47D breast = system: T-47D breast
MDA-N = system: MDA-N
HOP-18 NSCLC = system: HOP-18 NSCLC
MCF7 breast = system: MCF7 breast
MDA-MB-435 = system: MDA-MB-435
LOX IMVI melanoma = system: LOX IMVI melanoma
BT-549 breast = system: BT-549 breast
PC-3 prostate = system: PC-3 prostate
COLO 205 colon = system: COLO 205 colon

Q: Which results are given for `CC1(Cl)CC(C)(/C=C/Cl)C(Cl)CC1Cl` (configuration not stated)?
A: TGI (SK-OV-3 ovarian): 66.4 µM; TGI (SK-MEL-28 melanoma): 29.4 µM; TGI (OVCAR-4 ovarian): 37.1 µM; TGI (HOP-92 NSCLC): 16.8 µM; TGI (KM12 colon): 31.3 µM; TGI (NCI-H460 lung): 28.7 µM; TGI (UO-31 renal): 29.8 µM; TGI (KM20L2 colon): 31.6 µM; TGI (UACC-62 melanoma): 34.1 µM; TGI (EKVX NSCLC): 26.4 µM; TGI (NCI-H23 lung): 44.1 µM; TGI (ACHN renal): 27.8 µM; TGI (SK-MEL-5 melanoma): 30.2 µM; TGI (OVCAR-5 ovarian): 34.2 µM; TGI (OVCAR-3 ovarian): 28 µM; TGI (M14 melanoma): 31.2 µM; TGI (RXF 393 renal): 30.6 µM; TGI (SNB-19 CNS): 31.4 µM; TGI (CCRF-CEM leukemia): 59 µM; TGI (K-562 leukemia): 57 µM; TGI (OVCAR-8 ovarian): 31.3 µM; TGI (A549 NSCLC): 31.1 µM; TGI (786-0 renal): 29.1 µM; TGI (HOP-62 NSCLC): 34.7 µM; TGI (DLD-1 colon): 35.7 µM; TGI (IGROV1 ovarian): 30.4 µM; TGI (SR leukemia): 44.6 µM; TGI (SF-295 CNS): 28.5 µM; TGI (LXFL 529 NSCLC): 28.3 µM; TGI (HCT-15 colon): 27.3 µM; TGI (SF-539 CNS): 34.4 µM; TGI (TK-10 renal): 76.7 µM; TGI (SW-620 colon): 30.8 µM; TGI (U251 CNS): 30.8 µM; TGI (SNB-75 CNS): 41.4 µM; TGI (SK-MEL-2 melanoma): 26.3 µM; TGI (A498 renal): 34 µM; TGI (MALME-3M melanoma): 29.6 µM; TGI (MOLT-4 leukemia): > 100 µM; TGI (HT29 colon): 27.3 µM; TGI (HCT-116 colon): 30 µM; TGI (SF-268 CNS): 31.1 µM; TGI (SN12C renal): 31 µM; TGI (CAKI-1 renal): 33.3 µM; TGI (M19-MEL melanoma): 59.1 µM; TGI (NCI-H522 lung): 31.6 µM; TGI (RXF-631 renal): 28.7 µM; TGI (HCC-2998 colon): 32 µM; TGI (XF 498 CNS): 27.4 µM; TGI (SNB-78 CNS): 46.8 µM

Q: `N#CCCN(CCC#N)c1ccc(C=Nc2ccc(F)cc2)cc1` was tested. Which TGI (SK-OV-3 ovarian) did it give?
A: The TGI was > 100 µM.

Q: And the TGI (SK-MEL-28 melanoma)?
A: Its TGI is > 100 µM.

Q: What about the TGI (OVCAR-4 ovarian) of the same molecule?
A: Its TGI is > 100 µM.

Q: What about the TGI (HOP-92 NSCLC) of the same molecule?
A: Its TGI is > 100 µM.

Q: And the TGI (KM12 colon)?
A: The TGI was > 100 µM.

Q: What about the TGI (NCI-H460 lung) of the same molecule?
A: The TGI was > 100 µM.

Q: What about the TGI (UO-31 renal) of the same molecule?
A: Its TGI is > 100 µM.

Q: And the TGI (KM20L2 colon)?
A: The TGI was > 100 µM.

Q: And the TGI (UACC-62 melanoma)?
A: The TGI was > 54.2 µM.

Q: What about the TGI (DMS 114 small cell lung) of the same molecule?
A: Its TGI is > 100 µM.

Q: What about the TGI (EKVX NSCLC) of the same molecule?
A: Its TGI is > 100 µM.

Q: What about the TGI (NCI-H23 lung) of the same molecule?
A: Its TGI is > 100 µM.

Q: And the TGI (HL-60(TB) leukemia)?
A: The TGI was > 100 µM.

Q: And the TGI (ACHN renal)?
A: Its TGI is > 100 µM.

Q: And the TGI (SK-MEL-5 melanoma)?
A: Its TGI is > 100 µM.

Q: And the TGI (OVCAR-5 ovarian)?
A: The TGI was > 100 µM.

Q: What about the TGI (UACC-257 melanoma) of the same molecule?
A: The TGI was > 100 µM.

Q: And the TGI (OVCAR-3 ovarian)?
A: Its TGI is > 100 µM.

Q: What about the TGI (M14 melanoma) of the same molecule?
A: Its TGI is > 100 µM.

Q: And the TGI (RXF 393 renal)?
A: Its TGI is > 100 µM.

Q: What about the TGI (SNB-19 CNS) of the same molecule?
A: Its TGI is > 100 µM.

Q: What about the TGI (DMS 273 small cell lung) of the same molecule?
A: Its TGI is > 100 µM.

Q: What about the TGI (CCRF-CEM leukemia) of the same molecule?
A: The TGI was > 100 µM.

Q: And the TGI (K-562 leukemia)?
A: The TGI was > 100 µM.

Q: And the TGI (OVCAR-8 ovarian)?
A: The TGI was > 100 µM.

Q: What about the TGI (RPMI-8226 leukemia) of the same molecule?
A: Its TGI is > 100 µM.

Q: And the TGI (A549 NSCLC)?
A: The TGI was > 100 µM.

Q: What about the TGI (786-0 renal) of the same molecule?
A: Its TGI is > 100 µM.

Q: And the TGI (HOP-62 NSCLC)?
A: Its TGI is > 100 µM.

Q: What about the TGI (DLD-1 colon) of the same molecule?
A: Its TGI is > 100 µM.

Q: And the TGI (IGROV1 ovarian)?
A: Its TGI is > 100 µM.

Q: What about the TGI (SR leukemia) of the same molecule?
A: The TGI was > 100 µM.

Q: What about the TGI (SF-295 CNS) of the same molecule?
A: The TGI was > 100 µM.

Q: And the TGI (NCI-H226 lung)?
A: The TGI was > 100 µM.

Q: What about the TGI (LXFL 529 NSCLC) of the same molecule?
A: The TGI was > 100 µM.

Q: And the TGI (MDA-MB-231 breast)?
A: The TGI was > 100 µM.

Q: And the TGI (HCT-15 colon)?
A: Its TGI is > 100 µM.

Q: What about the TGI (SF-539 CNS) of the same molecule?
A: Its TGI is > 83.2 µM.

Q: What about the TGI (TK-10 renal) of the same molecule?
A: The TGI was > 92.6 µM.

Q: What about the TGI (SW-620 colon) of the same molecule?
A: The TGI was > 100 µM.

Q: And the TGI (DU-145 prostate)?
A: The TGI was > 100 µM.

Q: What about the TGI (T-47D breast) of the same molecule?
A: Its TGI is > 100 µM.

Q: And the TGI (U251 CNS)?
A: The TGI was > 100 µM.

Q: What about the TGI (SNB-75 CNS) of the same molecule?
A: Its TGI is > 100 µM.

Q: What about the TGI (SK-MEL-2 melanoma) of the same molecule?
A: The TGI was > 32.3 µM.

Q: And the TGI (A498 renal)?
A: The TGI was > 100 µM.

Q: And the TGI (MDA-N)?
A: The TGI was > 100 µM.

Q: And the TGI (MALME-3M melanoma)?
A: The TGI was > 100 µM.

Q: And the TGI (HOP-18 NSCLC)?
A: The TGI was > 100 µM.

Q: And the TGI (MCF7 breast)?
A: Its TGI is > 100 µM.

Q: What about the TGI (MOLT-4 leukemia) of the same molecule?
A: Its TGI is > 100 µM.

Q: What about the TGI (MDA-MB-435) of the same molecule?
A: Its TGI is > 100 µM.

Q: And the TGI (HT29 colon)?
A: Its TGI is > 100 µM.

Q: And the TGI (HCT-116 colon)?
A: Its TGI is > 100 µM.

Q: What about the TGI (SF-268 CNS) of the same molecule?
A: Its TGI is > 100 µM.

Q: What about the TGI (SN12C renal) of the same molecule?
A: Its TGI is > 100 µM.

Q: And the TGI (LOX IMVI melanoma)?
A: The TGI was > 100 µM.

Q: What about the TGI (CAKI-1 renal) of the same molecule?
A: Its TGI is > 100 µM.

Q: What about the TGI (BT-549 breast) of the same molecule?
A: Its TGI is > 100 µM.

Q: And the TGI (M19-MEL melanoma)?
A: The TGI was > 44.5 µM.

Q: What about the TGI (PC-3 prostate) of the same molecule?
A: The TGI was > 100 µM.

Q: And the TGI (NCI-H522 lung)?
A: The TGI was > 100 µM.

Q: And the TGI (RXF-631 renal)?
A: The TGI was > 100 µM.

Q: What about the TGI (HCC-2998 colon) of the same molecule?
A: Its TGI is > 100 µM.

Q: What about the TGI (XF 498 CNS) of the same molecule?
A: Its TGI is > 100 µM.

Q: And the TGI (SNB-78 CNS)?
A: Its TGI is > 100 µM.

Q: What about the TGI (COLO 205 colon) of the same molecule?
A: The TGI was 70.3 µM.
